We go through 2 compounds from patent publication US20200054594A1 (priority 2017, published 2020).

One series has as its system incision pain in rats. The series can be described thus: Incision pain test in rats, mechanical pain threshold by Electronic Von Frey. The class given is in vivo, male Wistar rats.
For another series, the system named is rats. The series can be described thus: Toxic effects / adverse reactions observed during the rat incision pain study. Conditions: single agents, i.v. The format is in vivo, male Wistar rats. Here is the method:
The rats were randomly divided into the following groups according to the body weight: blank control group (n=8), model group (n=8) and drug-administered group (n=48). The drug-administered group was divided into the following groups: compound 19-0.1 mg/kg group (n=8), compound 19-0.3 mg/kg group (n=8), compound 19-0.03 mg/kg+compound 35-0.1 mg/kg group (n=8), compound 19-0.03 mg/kg+compound 35-0.3 mg/kg group (n=8), compound 19-0.1 mg/kg+compound 35-0.1 mg/kg group (n=8), and compound 19-0.1 mg/kg+compound 35-0.3 mg/kg group (n=8). The model group and drug-administered group were subjected to an incision surgery. During the surgery, the rats were anesthetized with isoflurane. An incision (1 cm long) passing through the skin and fascia was made with a No. 10 surgical blade in the middle of the left hind paw. The skin was sutured with a 3-0 sterile silk surgical suture. The injured site was disinfected with antibiotic ointment and iodophor. The animals were returned to their original place to recover overnight. After 24 hours, the drug was injected through the tail vein, and the blank control group and the model group were administrated with the corresponding solvents. […] The mechanical pain threshold of each group was measured by the Electronic Von Frey 30 minutes after the injection to evaluate the analgesic effect of the drug on the surgical incision pain and the intensity thereof.

Each structure is given as a SMILES string.

As to `CCO[C@H]1CC[C@H](NCC[C@@]2(c3ccccn3)CCOC3(CCCC3)C2)c2ccccc21` [compound 19, (1S,4S)-4-Ethoxy-N-(2-((R)-9-(pyridin-2-yl)-6-oxaspiro[4.5]decan-9-yl)ethyl)-1,2,3,4-tetrahydronaphthalen-1-amine], in the series on incision pain in rats (compound 19 0.1 mg/kg i.v. alone, 30 minutes after administration), the “increase of tenderness threshold compared with the model group” value came to 233.8%. In the series on incision pain in rats (compound 19 0.1 mg/kg i.v. alone, 30 minutes after administration, model group 11.08 g, blank control 37.68 g), this compound showed a tenderness threshold of 36.99 g. Besides, the “toxic effects (such as slow movement and stiffness of limbs in rats), compound 19 alone versus compound 35 alone” value with rats is reported as “more obvious toxic effects”.

On to `CNC(=O)NC1CCN(C(=O)[C@@H](CCCCN)NC(=O)[C@@H](CC(C)C)NC(=O)[C@@H](Cc2ccccc2)NC(=O)[C@H](N)Cc2ccccc2)CC1` [compound 35, (R)—N—((R)-6-Amino-1-(4-(3-methylureido)piperidin-1-yl)-1-oxohexan-2-yl)-2-((R)-2-((R)-2-amino-3-phenylpropanamido)-3-phenylpropanamido)-4-methylpentanamide], for which, in the series with incision pain in rats (rat, in vivo, iv, 0.3 mg/kg), the “increase of tenderness threshold compared with the model group” value stood at 102.3% and the tenderness threshold worked out at 22.42 g.
